Like-named read-outs stand apart in the source and are kept apart here.
What was measured:
[1] = tested on: Tubulin α1 (Tα1) promoter; assay: cells; conditions: for LOAEL Neurons Tα1: ESC-derived neurons, 48 h exposure
Procedure, shortened: (§1)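 Mouse CGR8 ESCs carrying Tα1-firefly and EF1α-Renilla luciferase reporters, treated either undifferentiated (48 h exposure after 24 h plating) or as MS5-induced neurons (exposure day 6 to day 8). Dual-luciferase luminescence expressed as % promoter activity versus DMSO control wells; 5 µM methylmercury as positive control.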

CGR8-2Luc ESCs = conditions: undifferentiated ESCs, 48 h exposure, PI assay (cytotoxicity)
Procedure, shortened: (§2)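 Mouse CGR8-2Luc ESCs in LIF-containing medium were exposed to compounds for 48 h; ESC-derived neurons (MS5 co-culture, replated day 5 in N2/bFGF medium) were exposed from day 6 to day 8. Read-outs: Tα1-FLuc, EF1α-RLuc and PI DNA content as % of control. LOAEL = lowest concentration giving a significant decrease versus baseline.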

ESC-derived neurons = conditions: ESC-derived neurons, 48 h exposure, PI assay (cytotoxicity)
Procedure, shortened: as §2

[2] = tested on: undifferentiated pluripotent stem cells (ESCs); assay: Dual luminescence reporter test system, undifferentiated ESCs (readout not separated); assay type: cell-based, mouse; conditions: for effect on promoter activities in undifferentiated cells: non-cytotoxic concentrations; for In vitro EC20 in ESC: in vitro toxicity data expressed as EC20
Source text: Fig. 1 Synopsis of experimental protocols. The impact of compounds on neural promoter activity (FLuc, Firefly Luciferase under the control of the Tα1 promoter), general promoter activity (RLuc, Renilla Luciferase under the control of the EF1α promoter), and amount of DNA (PI, propidium iodide fluorescence in cell homogenates) was investigated in undifferentiated mouse embryonic pluripotent stem cells (ESCs) and on ESC-derived neurons. Arrows indicate the time of measurement of the three parameters. a Protocol for testing compounds effects on ESCs. CGR8-2Luc cells were plated on gelatin-coated 96-well plates in maintenance medium (BHK21 medium containing 10 % FCS, L-glutamine, NEAA, P/S, and LIF). Twenty-four hours later, cells were exposed to compounds for forty-eight hours. b Protocol for testing compounds on ESC-derived neurons. CGR8-2Luc cells were co-cultured with MS5 cells to induce neural differentiation in DMEM medium containing 15 % KO-serum, NEAA, β-mercaptoethanol, and P/S. On day 5, cells were detached and seeded on polyornithine-coated plates in DMEM medium containing N2 supplement, bFGF, and P/S; compound exposure was from day 6 to day 8
To test compounds on ESC-derived neurons, neuronal differentiation was carried out as previously described (Suter et al. [2009]; Xu et al. [2014]). Briefly, CGR8-2Luc cells were seeded on irradiated bone marrow-derived stromal MS5 cells and cultivated for 4 days in DMEM medium containing 15 % Knock-out™ Serum Replacement, non-essential amino acids, beta-mercaptoethanol, and penicillin/streptomycin. At day 5, cells were then re-plated (3 × 10^5 cells/cm^2) on polyornithine-coated 96-well plates in N2 medium containing DMEM, N2 supplement, penicillin/streptomycin, and 10 ng/ml basic human fibroblast growth factor (bFGF) (Invitrogen). […] To assess toxicity of compounds on undifferentiated pluripotent stem cells (ESCs), CGR8-2Luc cells were plated at 45,000 cells/cm^2 on 0.1 % gelatin-coated dishes in BHK21 medium, supplemented with 10 % fetal calf serum, L-glutamine, non-essential amino acids, penicillin/streptomycin, and leukemia inhibitory factor (LIF). After 24 h, compounds were added and incubated for 48 h, before luciferase expression and PI fluorescence were analyzed. In all experiments, methylmercury was used as a positive control at a concentration of 5 µM.
Luciferase activities were measured with a Dual-Luciferase™ Reporter system kit. CGR8-2Luc ES cells were lysed in 96-well plates according to the manufacturer’s instructions. Luminescence measurements were performed on a Fluostar Optima reader. Luminescence counts were expressed as percentage of promoter activity normalized by comparison with the control wells treated by DMSO. […] parameters were measured in homogenates of ESCs and in ESC-derived neurons: (1) FLuc, reflecting the activity of early neural promoter Tα1. FLuc increases during neuronal differentiation. Many neurotoxic compounds may affect FLuc expression, either through impact on neuronal differentiation, through changes of neuronal gene expression, or through killing of neurons.
After measurement of luciferase activity, DNA quantity was determined by PI assay, as previously described (Xu et al. [2014]). PI was added to cell homogenates after the luciferase test, at a final concentration of 50 µg/ml and incubated for 2 h. After incubation, fluorescence intensity was measured on a Flexstation 3 microplate reader (Excitation: 544 nm ± 15 nm; Emission: 620 nm ± 15 nm). Results are expressed as percentage of control. Propidium iodide (PI) measures total DNA content as an approximation of the cell number.

[3] = tested on: Tubulin α1 (Tα1) promoter; conditions: for LOAEL ESC Tα1: undifferentiated ESCs, 48 h exposure, lowest tested concentration with statistically significant decrease
Procedure, shortened: as §1

EF1α promoter = conditions: for LOAEL ESC EF1α: undifferentiated ESCs
Procedure, shortened: as §1

[4] = ESC-derived neurons, 48 h exposure

Row | SMILES | LOAEL Neurons Tα1 [1] [µM] | LOAEL ESC DNA (CGR8-2Luc ESCs) [µM] | LOAEL Neurons DNA (ESC-derived neurons) [µM] | effect on promoter activities in undifferentiated cells [2] | LOAEL ESC Tα1 [3] [µM] | effect on general promoter activity in neurons (EF1α promoter) | LOAEL Neurons EF1α (EF1α promoter; [4]) [µM] | LOAEL ESC EF1α (EF1α promoter; 48 h exposure) [µM] | In vitro EC20 in ESC [2] [nM] | effect on neural promoter activity in neurons [1] | effect on neural promoter activity in ESCs [3] | LOAEL Neurons EF1α (EF1α promoter; mouse, 48 h) [µM]
1 | Nc1ccccc1NC(=O)c1ccc(CNC(=O)OCc2cccnc2)cc1 [Entinostat] | 0.5 | 5 | 50 | enhanced the activities of neuronal and/or general promoters | 50 | enhanced | >50 | 5 |  |  |  | 
2 | CCCC(CCC)C(=O)O [Valproic acid] | 50 | 5000 | 5000 | enhanced the activities of neuronal and/or general promoters | 5000 |  | 5000 | 5000 |  |  |  | 
3 | C[C@]12CC[C@H](O)CC1=CC[C@@H]1[C@@H]2CC[C@]2(C)C(c3cccnc3)=CC[C@@H]12 [Abiraterone] | 1 | >2 | >2 |  | >2 |  | 2 | >2 | 2000 |  |  | 
4 | C/C(O)=C(\C#N)C(=O)Nc1ccc(C(F)(F)F)cc1 [Teriflunomide] | 50 | >50 | >50 |  | >50 |  |  | >50 | 4000 to 40000 | increase | increase | >50
5 | COC1=C2C[C@@H](C)C[C@H](OC)[C@H](O)[C@@H](C)/C=C(\C)[C@H](OC(N)=O)[C@@H](OC)/C=C\C=C(/C)C(=O)NC(=CC1=O)C2=O [Geldanamycin] | 0.05 | 0.05 | 0.05 |  | 0.005 |  | 0.05 | 0.5 | 10 |  |  | 

Source: publication PMC5225183, “Fingerprinting of neurotoxic compounds using a mouse embryonic stem cell dual luminescence reporter assay” (Archives of Toxicology, 2016)
